One block for each molecule: values may come before it.
Legend:
[1] = molecular target: Calcium/calmodulin-dependent protein kinase kinase 1 (Homo sapiens) (UniProt Q8N5S9); test: Inhibition of human recombinant CaMKK1 at 500 nM in presence of ATP by radiometric assay relative to control
[2] = molecular target: Proto-oncogene tyrosine-protein kinase receptor Ret (Homo sapiens) (UniProt P07949); test: Inhibition of human recombinant RET at 500 nM in presence of ATP by radiometric assay relative to control
Sequence of Proto-oncogene tyrosine-protein kinase receptor Ret (Homo sapiens) (P07949 whole entry): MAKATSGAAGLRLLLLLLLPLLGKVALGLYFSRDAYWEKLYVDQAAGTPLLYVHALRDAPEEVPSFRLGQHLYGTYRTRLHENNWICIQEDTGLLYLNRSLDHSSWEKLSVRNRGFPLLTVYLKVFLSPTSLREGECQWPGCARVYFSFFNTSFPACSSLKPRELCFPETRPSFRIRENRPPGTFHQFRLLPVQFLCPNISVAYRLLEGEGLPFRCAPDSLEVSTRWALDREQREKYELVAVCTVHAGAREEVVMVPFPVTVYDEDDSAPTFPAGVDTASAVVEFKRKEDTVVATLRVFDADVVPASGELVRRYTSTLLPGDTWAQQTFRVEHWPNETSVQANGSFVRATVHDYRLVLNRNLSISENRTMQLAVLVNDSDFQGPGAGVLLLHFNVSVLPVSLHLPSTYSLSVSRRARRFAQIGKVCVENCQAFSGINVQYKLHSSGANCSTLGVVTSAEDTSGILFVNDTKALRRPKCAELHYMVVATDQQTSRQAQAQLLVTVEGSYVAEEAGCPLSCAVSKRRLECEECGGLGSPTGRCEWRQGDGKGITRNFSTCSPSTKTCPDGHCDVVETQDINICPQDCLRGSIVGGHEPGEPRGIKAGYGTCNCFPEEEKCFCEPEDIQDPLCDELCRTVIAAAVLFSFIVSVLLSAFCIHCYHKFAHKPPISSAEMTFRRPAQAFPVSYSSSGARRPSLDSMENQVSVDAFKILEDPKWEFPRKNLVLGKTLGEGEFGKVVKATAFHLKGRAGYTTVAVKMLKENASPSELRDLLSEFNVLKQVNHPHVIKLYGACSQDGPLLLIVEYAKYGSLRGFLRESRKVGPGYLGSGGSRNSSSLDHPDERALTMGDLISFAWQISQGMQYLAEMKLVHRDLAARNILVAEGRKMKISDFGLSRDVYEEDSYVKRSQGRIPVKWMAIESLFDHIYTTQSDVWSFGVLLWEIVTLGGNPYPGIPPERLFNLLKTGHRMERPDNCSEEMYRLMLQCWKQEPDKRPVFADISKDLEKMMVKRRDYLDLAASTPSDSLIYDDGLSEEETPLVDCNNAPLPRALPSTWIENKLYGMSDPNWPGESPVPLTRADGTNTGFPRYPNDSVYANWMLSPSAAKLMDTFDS

[3] = molecular target: Misshapen-like kinase 1 (Homo sapiens) (UniProt Q8N4C8); test: Inhibition of human recombinant MINK at 500 nM related to control ULK1
Sequence of Misshapen-like kinase 1 (Homo sapiens) (Q8N4C8 whole entry, looked up): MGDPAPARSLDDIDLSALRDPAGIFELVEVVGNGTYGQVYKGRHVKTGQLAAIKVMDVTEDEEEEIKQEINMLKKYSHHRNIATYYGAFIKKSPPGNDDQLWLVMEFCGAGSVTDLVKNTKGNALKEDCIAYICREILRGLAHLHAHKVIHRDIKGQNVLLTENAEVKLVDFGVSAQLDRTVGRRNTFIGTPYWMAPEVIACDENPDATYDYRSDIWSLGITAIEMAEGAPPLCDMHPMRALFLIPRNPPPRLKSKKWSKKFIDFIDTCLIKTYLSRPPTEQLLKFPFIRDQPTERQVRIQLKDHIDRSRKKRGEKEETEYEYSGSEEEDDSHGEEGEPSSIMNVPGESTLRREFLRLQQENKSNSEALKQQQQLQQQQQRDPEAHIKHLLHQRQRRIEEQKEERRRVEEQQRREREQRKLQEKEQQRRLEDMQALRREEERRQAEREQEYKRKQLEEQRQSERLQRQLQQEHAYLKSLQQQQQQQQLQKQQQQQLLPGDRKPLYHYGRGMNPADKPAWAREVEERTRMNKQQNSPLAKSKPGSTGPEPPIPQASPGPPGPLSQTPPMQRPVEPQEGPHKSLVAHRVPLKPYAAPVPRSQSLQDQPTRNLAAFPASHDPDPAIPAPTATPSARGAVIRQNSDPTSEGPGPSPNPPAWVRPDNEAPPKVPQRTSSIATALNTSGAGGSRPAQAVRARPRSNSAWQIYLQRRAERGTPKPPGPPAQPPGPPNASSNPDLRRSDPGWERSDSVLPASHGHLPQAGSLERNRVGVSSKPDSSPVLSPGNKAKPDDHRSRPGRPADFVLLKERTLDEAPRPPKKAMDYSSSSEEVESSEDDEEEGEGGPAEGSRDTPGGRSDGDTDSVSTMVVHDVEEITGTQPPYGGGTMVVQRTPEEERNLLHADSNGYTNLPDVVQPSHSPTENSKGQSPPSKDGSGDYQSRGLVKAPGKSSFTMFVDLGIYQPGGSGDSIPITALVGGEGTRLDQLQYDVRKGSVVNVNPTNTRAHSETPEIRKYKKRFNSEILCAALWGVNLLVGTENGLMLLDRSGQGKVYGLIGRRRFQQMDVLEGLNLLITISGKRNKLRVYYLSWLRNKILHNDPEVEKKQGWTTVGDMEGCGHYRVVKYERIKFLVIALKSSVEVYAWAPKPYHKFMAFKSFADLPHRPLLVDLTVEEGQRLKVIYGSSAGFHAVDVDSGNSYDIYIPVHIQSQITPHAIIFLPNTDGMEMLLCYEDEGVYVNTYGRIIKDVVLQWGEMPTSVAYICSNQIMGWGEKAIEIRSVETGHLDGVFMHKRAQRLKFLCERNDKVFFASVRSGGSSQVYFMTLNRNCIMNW

[4] = molecular target: T1, Tyrosine-protein kinase receptor TYRO3 (Homo sapiens) (UniProt Q06418); test: Inhibition of human recombinant TYRO3 at 40 nM related to control ULK1
T1 sequence (whole entry): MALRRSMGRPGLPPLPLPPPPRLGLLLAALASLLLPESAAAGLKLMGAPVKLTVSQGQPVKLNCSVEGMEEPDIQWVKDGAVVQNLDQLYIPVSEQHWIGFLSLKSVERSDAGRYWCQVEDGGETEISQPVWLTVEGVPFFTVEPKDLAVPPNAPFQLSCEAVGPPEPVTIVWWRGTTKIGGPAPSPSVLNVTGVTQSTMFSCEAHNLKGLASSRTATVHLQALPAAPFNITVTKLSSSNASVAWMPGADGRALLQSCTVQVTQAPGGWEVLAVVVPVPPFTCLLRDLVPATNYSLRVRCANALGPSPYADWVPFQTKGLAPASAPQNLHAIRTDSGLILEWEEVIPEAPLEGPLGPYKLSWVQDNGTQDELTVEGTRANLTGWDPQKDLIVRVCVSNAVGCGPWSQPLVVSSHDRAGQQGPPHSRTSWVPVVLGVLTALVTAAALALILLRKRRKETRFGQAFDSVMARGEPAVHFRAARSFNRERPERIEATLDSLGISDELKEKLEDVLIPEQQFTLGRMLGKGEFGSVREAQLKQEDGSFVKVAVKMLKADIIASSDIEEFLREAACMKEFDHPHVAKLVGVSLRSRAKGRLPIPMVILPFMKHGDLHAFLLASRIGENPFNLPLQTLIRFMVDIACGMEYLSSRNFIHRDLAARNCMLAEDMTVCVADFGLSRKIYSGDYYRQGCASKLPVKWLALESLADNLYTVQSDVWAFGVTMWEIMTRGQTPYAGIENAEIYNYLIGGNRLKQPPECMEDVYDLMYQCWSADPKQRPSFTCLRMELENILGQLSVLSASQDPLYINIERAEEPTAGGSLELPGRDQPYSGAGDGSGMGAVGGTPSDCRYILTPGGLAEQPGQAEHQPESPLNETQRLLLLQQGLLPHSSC

[5] = molecular target: Cyclin-dependent kinase-like 1 (Homo sapiens) (UniProt Q00532); test: Inhibition of human recombinant CDKL1 at 40 nM in presence of ATP by radiometric assay relative to control
Sequence of Cyclin-dependent kinase-like 1 (Homo sapiens) (Q00532 whole entry): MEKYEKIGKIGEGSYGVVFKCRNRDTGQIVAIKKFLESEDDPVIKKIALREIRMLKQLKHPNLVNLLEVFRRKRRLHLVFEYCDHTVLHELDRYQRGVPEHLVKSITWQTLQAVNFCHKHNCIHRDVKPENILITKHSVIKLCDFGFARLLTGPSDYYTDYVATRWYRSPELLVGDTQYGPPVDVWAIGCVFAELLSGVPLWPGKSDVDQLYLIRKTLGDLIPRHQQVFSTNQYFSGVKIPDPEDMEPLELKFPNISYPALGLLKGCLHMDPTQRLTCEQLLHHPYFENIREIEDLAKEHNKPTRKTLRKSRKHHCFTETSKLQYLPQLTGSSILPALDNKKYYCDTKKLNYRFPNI

[6] = molecular target: T2, Inhibitor of nuclear factor kappa-B kinase subunit beta (Homo sapiens) (UniProt O14920); test: Inhibition of human recombinant IKKb at 15 nM in presence of ATP by radiometric assay relative to control
T2 sequence (whole entry): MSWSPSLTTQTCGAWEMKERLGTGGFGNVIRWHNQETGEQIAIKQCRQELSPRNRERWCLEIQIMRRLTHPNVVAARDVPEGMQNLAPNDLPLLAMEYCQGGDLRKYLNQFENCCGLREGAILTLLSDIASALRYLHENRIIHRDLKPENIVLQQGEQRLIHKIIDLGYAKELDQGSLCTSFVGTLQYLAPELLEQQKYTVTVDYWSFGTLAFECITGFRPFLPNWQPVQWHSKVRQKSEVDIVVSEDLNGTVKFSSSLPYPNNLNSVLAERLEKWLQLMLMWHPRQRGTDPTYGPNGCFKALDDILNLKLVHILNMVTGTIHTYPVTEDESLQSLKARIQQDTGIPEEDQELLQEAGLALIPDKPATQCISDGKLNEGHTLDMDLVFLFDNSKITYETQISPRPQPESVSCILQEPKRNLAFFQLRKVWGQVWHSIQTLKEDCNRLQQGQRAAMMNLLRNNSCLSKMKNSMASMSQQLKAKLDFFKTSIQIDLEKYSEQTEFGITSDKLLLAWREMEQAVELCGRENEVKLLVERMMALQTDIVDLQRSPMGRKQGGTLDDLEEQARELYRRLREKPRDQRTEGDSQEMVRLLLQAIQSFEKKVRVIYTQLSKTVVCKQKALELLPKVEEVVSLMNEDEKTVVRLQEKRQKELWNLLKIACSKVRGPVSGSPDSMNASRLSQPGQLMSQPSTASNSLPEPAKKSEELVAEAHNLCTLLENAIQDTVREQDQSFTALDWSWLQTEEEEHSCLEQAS

[7] = molecular target: T3, Serine/threonine-protein kinase Sgk1 (Homo sapiens) (UniProt O00141); test: Inhibition of human recombinant SGK1 at 15 nM in presence of ATP by radiometric assay relative to control
T3 sequence (whole entry): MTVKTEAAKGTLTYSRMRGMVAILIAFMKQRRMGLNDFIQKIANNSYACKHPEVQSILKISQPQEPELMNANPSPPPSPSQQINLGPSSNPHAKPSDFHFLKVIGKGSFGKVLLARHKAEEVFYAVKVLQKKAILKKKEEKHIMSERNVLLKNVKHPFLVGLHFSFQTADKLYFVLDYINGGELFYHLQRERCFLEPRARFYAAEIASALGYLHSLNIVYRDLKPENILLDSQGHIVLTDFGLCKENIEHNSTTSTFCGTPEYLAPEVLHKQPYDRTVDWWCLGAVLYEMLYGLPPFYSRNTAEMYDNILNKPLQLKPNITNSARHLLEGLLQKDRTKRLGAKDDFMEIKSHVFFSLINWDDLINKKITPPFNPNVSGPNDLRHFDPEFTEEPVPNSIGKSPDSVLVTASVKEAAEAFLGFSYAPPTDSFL

[8] = molecular target: Epidermal growth factor receptor (Homo sapiens) (UniProt P00533); test: Inhibition of human recombinant EGFR at 15 nM in presence of ATP by radiometric assay relative to control
Sequence of Epidermal growth factor receptor (Homo sapiens) (P00533 whole entry): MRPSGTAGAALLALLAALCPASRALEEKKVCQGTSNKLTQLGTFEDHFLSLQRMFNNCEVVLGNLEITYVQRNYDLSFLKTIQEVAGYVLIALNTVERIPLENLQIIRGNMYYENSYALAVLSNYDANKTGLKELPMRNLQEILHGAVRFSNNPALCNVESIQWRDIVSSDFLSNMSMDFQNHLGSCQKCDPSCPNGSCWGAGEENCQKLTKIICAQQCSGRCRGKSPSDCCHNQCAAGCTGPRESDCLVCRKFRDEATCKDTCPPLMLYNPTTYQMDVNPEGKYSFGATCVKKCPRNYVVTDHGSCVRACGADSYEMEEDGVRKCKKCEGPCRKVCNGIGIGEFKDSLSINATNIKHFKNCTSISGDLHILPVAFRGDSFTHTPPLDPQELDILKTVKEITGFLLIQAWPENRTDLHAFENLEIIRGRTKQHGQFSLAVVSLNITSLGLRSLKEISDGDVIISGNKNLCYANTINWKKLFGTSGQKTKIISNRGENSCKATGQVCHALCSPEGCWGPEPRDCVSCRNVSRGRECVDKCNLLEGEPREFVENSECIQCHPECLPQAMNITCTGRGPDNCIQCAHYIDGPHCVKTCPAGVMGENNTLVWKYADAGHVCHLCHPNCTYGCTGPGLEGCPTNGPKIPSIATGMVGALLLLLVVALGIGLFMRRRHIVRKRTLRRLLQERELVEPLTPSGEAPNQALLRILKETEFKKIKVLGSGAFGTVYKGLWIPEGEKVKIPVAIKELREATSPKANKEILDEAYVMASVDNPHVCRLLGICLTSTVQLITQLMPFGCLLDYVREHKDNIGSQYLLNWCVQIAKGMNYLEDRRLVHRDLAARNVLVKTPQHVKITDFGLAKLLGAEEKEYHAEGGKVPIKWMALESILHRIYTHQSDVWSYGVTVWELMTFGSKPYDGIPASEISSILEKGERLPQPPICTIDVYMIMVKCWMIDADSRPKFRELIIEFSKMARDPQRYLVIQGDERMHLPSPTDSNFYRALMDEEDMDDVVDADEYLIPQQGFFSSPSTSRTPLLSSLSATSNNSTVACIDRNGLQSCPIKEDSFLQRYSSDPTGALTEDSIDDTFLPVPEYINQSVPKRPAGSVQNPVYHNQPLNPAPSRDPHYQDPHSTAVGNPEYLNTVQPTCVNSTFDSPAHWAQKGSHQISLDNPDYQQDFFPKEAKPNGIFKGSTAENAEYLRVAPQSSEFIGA

[9] = molecular target: Serine/threonine-protein kinase WNK2 (Homo sapiens) (UniProt Q9Y3S1); test: Inhibition of human recombinant Wnk2 at 15 nM in presence of ATP by radiometric assay relative to control
[10] = molecular target: Tyrosine-protein kinase Lyn (Homo sapiens) (UniProt P07948); test: Inhibition of human recombinant LYN at 15 nM in presence of ATP by radiometric assay relative to control
Sequence of Tyrosine-protein kinase Lyn (Homo sapiens) (P07948 2-512 limits assumed): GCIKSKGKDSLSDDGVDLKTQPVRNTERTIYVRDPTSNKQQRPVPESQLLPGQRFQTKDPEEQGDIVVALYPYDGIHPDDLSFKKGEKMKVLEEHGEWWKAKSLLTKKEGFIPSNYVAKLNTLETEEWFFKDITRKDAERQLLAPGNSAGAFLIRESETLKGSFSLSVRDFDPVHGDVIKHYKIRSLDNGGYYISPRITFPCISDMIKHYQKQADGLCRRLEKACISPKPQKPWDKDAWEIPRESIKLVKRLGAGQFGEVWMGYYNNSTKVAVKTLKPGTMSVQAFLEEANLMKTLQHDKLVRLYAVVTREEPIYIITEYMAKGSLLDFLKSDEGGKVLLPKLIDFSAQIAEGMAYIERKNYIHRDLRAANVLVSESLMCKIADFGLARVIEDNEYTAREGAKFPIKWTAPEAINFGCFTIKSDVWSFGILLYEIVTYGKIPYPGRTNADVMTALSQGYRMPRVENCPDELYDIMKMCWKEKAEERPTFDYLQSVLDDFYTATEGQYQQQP

Sequence of Calcium/calmodulin-dependent protein kinase kinase 1 (Homo sapiens) (Q8N5S9 whole entry, looked up): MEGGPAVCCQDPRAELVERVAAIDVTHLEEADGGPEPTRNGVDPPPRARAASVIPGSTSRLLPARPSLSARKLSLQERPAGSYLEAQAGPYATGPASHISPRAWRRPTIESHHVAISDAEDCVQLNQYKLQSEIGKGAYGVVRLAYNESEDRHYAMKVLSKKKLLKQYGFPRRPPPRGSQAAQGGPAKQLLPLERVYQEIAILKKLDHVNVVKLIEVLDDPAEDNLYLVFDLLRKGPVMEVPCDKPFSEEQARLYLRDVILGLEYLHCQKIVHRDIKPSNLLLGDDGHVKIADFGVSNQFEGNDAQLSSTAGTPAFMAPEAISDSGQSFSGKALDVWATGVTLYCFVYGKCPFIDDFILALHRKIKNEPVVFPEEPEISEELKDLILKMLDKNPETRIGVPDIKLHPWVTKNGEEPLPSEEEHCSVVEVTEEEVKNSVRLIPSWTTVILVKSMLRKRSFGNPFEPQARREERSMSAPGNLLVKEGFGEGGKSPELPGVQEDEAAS

inhibition [1]: 8% | inhibition [2]: 3% | fold change (FC) [3]: 0.05
SMILES: CNC(=O)c1ccccc1Oc1nc(Nc2cc(OC)c(OC)c(OC)c2)ncc1Br

fold change (FC) [4]: 0 | inhibition [5]: 15%
SMILES: O=C(N[C@@H](C1CC1)C(F)(F)F)c1cc(-c2cnn3cc(-c4ccc(F)cc4)cnc23)cs1

inhibition [6]: 0% | inhibition [7]: 4% | inhibition [8]: 3% | inhibition [9]: 2% | inhibition [10]: 19%
SMILES: CC(C)[C@H](NC(=O)c1cc(-c2cnn3cc(-c4ccc(OCCN5CCCCC5)cc4)cnc23)cs1)C(F)(F)F
